Measured values: US20220282217A1, “COMPOSITIONS AND METHODS FOR PREPARING T CELL COMPOSITIONS AND USES THEREOF” (priority 2019, published 2022)
Read-outs that look alike come from different tables or passages of the source. Where a SMILES comes first, the peptide text is derived from it.

Tests used:
HLA-A01.01 [1] = target: HLA-A01.01 (Homo sapiens, UniProt P04439, A114D/A174V/A182V/D101N/D185E/E176A/E190D/L180R/Q94H/R68K/S129P/T187R/V100A/V91M/W191G); assay: Class I MHC peptide binding affinity (displacement of radiolabeled reference peptide)
Summary of the method: (§1)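 Steps: form MHCI complexes carrying labeled reference peptide; add competitor peptides at graded doses; incubate 2 days; separate complex-bound from free label by size-exclusion chromatography and count what remains bound.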

HLA-A03.01 [2] = target: T1, HLA-A03.01 (Homo sapiens, UniProt P04439); assay: as above
HLA-A11.01 [3] = target: HLA-A11.01 (Homo sapiens, UniProt P04439, A114D/D185E/E176A/F33Y/L180Q/S129P/T187R); assay: as above
HLA-A01.01 [4] = target: T2, HLA-A01.01 (Homo sapiens, UniProt P04439, A114D/A174V/A182V/D101N/E190D/Q94H/R68K/S129P/V100A/V91M/W191G); assay: Class I MHC peptide binding stability (pMHC-I dissociation, 125I-labeled light chain)
T2 construct: made in house; host or cells: E. coli

HLA-A03.01 [5] = target: T1, HLA-A03.01; assay: as above; design: made in house; host or cells: E. coli; conditions: HLA Allele A03.01; for Stability (half-life (hr.)): BTK C481S peptide; for Measured stability: time for half of the complexes to dissociate at 37° C.
CD8+ T cells = assay: Ex vivo induction of antigen-specific CD8 T cells (FLT3L-treated PBMCs), MHC tetramer/multimer readout; assay type: cell-based, human; design: key to Epitope prefixed with '*': positive CD8+ T cell response: The epitopes that are prefixed with ‘*’, were shown to induce positive CD8+ T cell response in either one or both the donors; key to Immunogenicity (#donors/2): positive CD8+ T cell response in either one or both the donors (marked as 1 or 2 in column 6 respectively); positive CD8+ T cell response in either one or both the donors (marked as 1 or 2 in column 6 respectively); conditions: HLA-A02:01
Protocol: Step 1: Plate 5 million PBMCs (or cells of interest) in each well of 24 well plate with FLT3L in 2 mL AIM V media Step 2: Peptide loading and maturation—in AIMV 1. Mix peptide pool of interest (except for no peptide condition) with PBMCs (or cells of interest) in respective wells.
3. Mix Maturation cocktail (including TNF-α, IL-1β, PGE1, and IL-7) to each well after incubation. Step 3: Add human serum to each well at a final concentration of 10% by volume and mix. Step 4: Replace the media with fresh RPMI+10% HS media supplemented with IL7+IL15. Step 5: Replace the media with fresh 20/80 media supplemented with IL7+IL15 during the period of incubation every 1-6 days. Step 6: Plate 5 million PBMCs (or cells of interest) in each well of new 6-well plate with FLT3L in 2 ml AIM V media Step 7: Peptide loading and maturation for re-stimulation—(new plates) 1. Mix peptide pool of interest (except for no peptide condition) with PBMCs (or cells of interest) in respective wells
1. […]
MHC tetramers are purchased or manufactured on-site according to methods known by one of ordinary skill, and are used to measure peptide-specific T cell expansion in the immunogenicity assays. […] Cells are acquired on a LSR Fortessa (Becton Dickinson) instrument, and are analyzed by use of FlowJo software (Becton Dickinson). […]

HLA-A02.01 [6] = target: HLA-A02.01 (Homo sapiens, UniProt P04439, D140Y/D185E/D98H/E176V/E277Q/G131W/G231S/I119V/I121R/I166T/I218V/L300P/L318F/N151K/N90K/P208A/P217A/Q86G/Q94H/R138H/R169H/T345S); assay: Class I MHC peptide binding affinity (displacement of radiolabeled reference peptide); conditions: Observed Affinity (IC50; (nM)), allele A02.01
Summary of the method: as §1

HLA-B08.01 [7] = target: T3, HLA-B08.01 (Homo sapiens, UniProt P01889, A93T/A95T/D138N/E176V/E187T/K202T/Q94N/R180D/S35A/V36M/Y33D/Y91F); assay: as above
Summary of the method: as §1

HLA-B07.02 = HLA-B07.02 (Homo sapiens, UniProt P01889); assay: as above
HLA-A02.01 [8] = target: T4, HLA-A02.01 (Homo sapiens, UniProt P04439, D140Y/D185E/D98H/E176V/E277Q/G131W/G231S/I119V/I121R/I166T/I218V/N151K/N90K/P208A/P217A/Q86G/Q94H/R138H/R169H); assay: Class I MHC peptide binding stability (pMHC-I dissociation, 125I-labeled light chain); conditions: allele A02.01
T4 construct: made in house; host or cells: E. coli

HLA-B08.01 [9] = target: T3, HLA-B08.01; assay: as above; conditions: Allele B08.01
[10] = target: 293T cells transduced with GATA3 neoORF, expressing the HLA of interest (Homo sapiens, UniProt P01889); assay: Presentation of GATA3 neoantigens: HLA-eluted peptides by targeted MS/MS (PRM) (Table 14); assay type: cell-based; conditions: GATA3 neoORF transduced 293T cells expressing HLA-B*07:02 protein
Protocol: (§2) To assess whether antigens could be processed and presented from the larger polypeptide context, peptides eluted from HLA molecules isolated from cells expressing the genes of interest were analyzed by tandem mass spectrometry (MS/MS).
(§3) Between 50 and 700 million of the transduced cells expressing peptides encoded by the GATA3 neoORF sequence were cultured and peptides were eluted from HLA-peptide complexes using an acid wash. Eluted peptides were then analyzed by targeted MS/MS using PRM. Spectral comparison between peptides derived from GATA3 neoORF and corresponding synthetic peptides were performed to confirm each detection.

HLA-A11.01 [11] = target: T5, HLA-A11.01 (Homo sapiens, UniProt P04439, A114D/F33Y/S129P); assay: Class I MHC peptide binding stability (pMHC-I dissociation, 125I-labeled light chain); conditions: HLA Allele A11.01; time for half of the complexes to dissociate at 37° C.
T5 construct: made in house; host or cells: E. coli

[12] = target: 293T cells transduced with GATA3 neoORF, expressing the HLA of interest (Homo sapiens, UniProt P04439); assay: Presentation of GATA3 neoantigens: HLA-eluted peptides by targeted MS/MS (PRM) (Table 14); assay type: cell-based; conditions: GATA3 neoORF transduced 293T cells expressing HLA-A*03:01 protein
Protocol: as §2, §3

[13] = system: 293T cells transduced with GATA3 neoORF, expressing the HLA of interest; assay: as above; assay type: cell-based, human; conditions: GATA3 neoORF transduced 293T cells expressing HLA-A*11:01 protein
Protocol: as §2, §3

[14] = Observed Affinity (IC50, (nM)), allele A01.01
[15] = BTK C481S peptide, HLA Allele A01.01
[16] = Allele B07.02, read-out: Observed Affinity (IC50, (nM))
[17] = allele A03.01, read-out: Observed Affinity (IC50, (nM))

Compound: CSCC[C@H](N)C(=O)N[C@@H](C)C(=O)N[C@@H](CC(N)=O)C(=O)NCC(=O)N[C@@H](CO)C(=O)N[C@@H](CC(C)C)C(=O)N[C@@H](CC(C)C)C(=O)N[C@@H](CC(N)=O)C(=O)N[C@@H](Cc1ccc(O)cc1)C(=O)O
- IC50 (HLA-A01.01 [1]; Affinity (nM), BTK C481S peptide, HLA Allele A01.01): 439 nM
- IC50 (HLA-A01.01 [1]; [14]): 439 nM
- IC50 (HLA-A03.01 [2]; Affinity (nM), BTK C481S peptide, HLA Allele A03.01): 35.6 nM
- IC50 (HLA-A03.01 [2]; Observed Affinity (IC50, (nM)), allele A03.01): 35.6 nM
- IC50 (HLA-A11.01 [3]): 536 nM
- Stability (half-life (hr.)) (HLA-A01.01 [4]; [15]): 12.98 min
- Stability (half-life (hr.)) (HLA-A03.01 [5]): 14.3 min

Compound: VLDCCISLL
- Epitope prefixed with '*': positive CD8+ T cell response (CD8+ T cells; in either one or both the donors): *VLDCCISLL
- Immunogenicity (#donors/2) (CD8+ T cells; positive CD8+ T cell response, number of donors out of 2): 1

Compound: CC[C@H](C)[C@H](NC(=O)[C@H](CC(C)C)NC(=O)[C@H](CCC(N)=O)NC(=O)[C@@H](NC(=O)[C@@H](NC(=O)[C@H](CO)NC(=O)[C@@H](NC(=O)[C@@H](N)CC(C)C)[C@@H](C)O)[C@@H](C)O)C(C)C)C(=O)N[C@@H](CCSC)C(=O)O (H-LTSTVQLIM-OH; N-terminus and C-terminus assumed)
- Kd (HLA-A01.01 [1]): 2890 nM
- IC50 (HLA-A01.01 [1]; [14]): 2890 nM
- Stability (half-life (hr.)) (HLA-A01.01 [4]; EGFR T790M peptides, HLA allele A01.01): 6.222 min

Compound: CC[C@H](C)[C@H](NC(=O)[C@H](Cc1ccc(O)cc1)NC(=O)[C@H](CCCCN)NC(=O)CNC(=O)[C@H](CCCNC(=N)N)NC(=O)[C@H](CCCCN)NC(=O)[C@H](Cc1c[nH]cn1)NC(=O)[C@H](CC(C)C)NC(=O)[C@@H](N)Cc1c[nH]c2ccccc12)C(=O)O (H-WLHKRGKYI-OH; N-terminus and C-terminus assumed)
- IC50 (HLA-A02.01 [6]): 1250 nM
- IC50 (HLA-B08.01 [7]): 417 nM
- IC50 (HLA-B07.02): 2650 nM
- Stability (T1/2 (h)) (HLA-A02.01 [8]): 1.2 h
- Stability (T1/2 (h)) (HLA-B08.01 [9]): 1.3 h

Compound: CSCC[C@H](NC(=O)[C@H](Cc1ccc(O)cc1)NC(=O)CNC(=O)[C@H](CC(=O)O)NC(=O)[C@H](CCCNC(=N)N)NC(=O)[C@H](CCCCN)NC(=O)[C@@H]1CCCN1C(=O)[C@@H](N)CCCCN)C(=O)N[C@@H](Cc1ccccc1)C(=O)O (H-KPKRDGYMF-OH; N-terminus and C-terminus assumed)
- IC50 (HLA-B07.02; [16]): 28.2 nM
- detected by mass spectrometry (peptide eluted from HLA-peptide complexes) [10]: detected

Compound: CC(C)[C@H](N)C(=O)N[C@H](C(=O)NCC(=O)N[C@@H](C)C(=O)N[C@@H](CC(=O)O)C(=O)NCC(=O)N[C@H](C(=O)NCC(=O)N[C@@H](CCCCN)C(=O)O)C(C)C)C(C)C
- Measured stability (HLA-A11.01 [11]): 3.4 h

Compound: CSCC[C@H](NC(=O)[C@H](Cc1ccc(O)cc1)NC(=O)CNC(=O)[C@H](CC(=O)O)NC(=O)[C@H](CCCNC(=N)N)NC(=O)[C@H](CCCCN)NC(=O)[C@@H]1CCCN1C(=O)[C@@H](N)CCCCN)C(=O)N[C@@H](Cc1ccccc1)C(=O)N[C@@H](CC(C)C)C(=O)O (H-KPKRDGYMFL-OH; N-terminus and C-terminus assumed)
- IC50 (HLA-B07.02; [16]): 98.1 nM
- detected by mass spectrometry (peptide eluted from HLA-peptide complexes) [10]: detected

Compound: CC(C)[C@H](N)C(=O)N[C@H](C(=O)N[C@H](C(=O)NCC(=O)N[C@@H](C)C(=O)N[C@@H](CC(=O)O)C(=O)NCC(=O)N[C@H](C(=O)NCC(=O)N[C@@H](CCCCN)C(=O)O)C(C)C)C(C)C)C(C)C
- Measured stability (HLA-A11.01 [11]): 13.0 h
- Measured stability (HLA-A03.01 [5]): 2.3 h

Compound: CSCC[C@H](NC(=O)[C@@H](N)Cc1ccc(O)cc1)C(=O)N[C@@H](C)C(=O)N[C@@H](CC(N)=O)C(=O)NCC(=O)N[C@@H](CO)C(=O)N[C@@H](CC(C)C)C(=O)N[C@@H](CC(C)C)C(=O)N[C@@H](CC(N)=O)C(=O)N[C@@H](Cc1ccc(O)cc1)C(=O)O (H-YMANGSLLNY-OH; N-terminus and C-terminus assumed)
- IC50 (HLA-A01.01 [1]; BTK C481S peptide, HLA Allele A01.01, read-out: Affinity): 13.2 nM
- IC50 (HLA-A01.01 [1]; allele A01.01, read-out: Observed Affinity (IC50, (nM))): 13.2 nM
- IC50 (HLA-A03.01 [2]; BTK C481S peptide, HLA Allele A03.01, read-out: Affinity): 95.9 nM
- IC50 (HLA-A03.01 [2]; [17]): 95.9 nM
- IC50 (HLA-A11.01 [3]; BTK C481S peptide, HLA Allele A11.01, read-out: Affinity): 974 nM
- Stability (half-life (hr.)) (HLA-A01.01 [4]; [15]): 51.97 min
- Stability (half-life (hr.)) (HLA-A03.01 [5]): 16.75 min

Compound: CC[C@H](C)[C@H](NC(=O)[C@@H](N)CCCCN)C(=O)N[C@@H](CCSC)C(=O)N[C@@H](Cc1ccccc1)C(=O)N[C@@H](C)C(=O)N[C@H](C(=O)N[C@@H](CC(C)C)C(=O)N[C@@H](CCC(N)=O)C(=O)N[C@@H](CCCNC(=N)N)C(=O)O)[C@@H](C)O (H-KIMFATLQR-OH; N-terminus and C-terminus assumed)
- IC50 (HLA-A03.01 [2]; [17]): 2.5 nM
- detected by mass spectrometry (peptide eluted from HLA-peptide complexes) [12]: detected
- detected by mass spectrometry (peptide eluted from HLA-peptide complexes) [13]: detected

Compound: CC(C)[C@H](N)C(=O)N[C@H](C(=O)NCC(=O)N[C@@H](C)C(=O)N[C@@H](CS)C(=O)NCC(=O)N[C@H](C(=O)NCC(=O)N[C@@H](CCCCN)C(=O)O)C(C)C)C(C)C
- Measured stability (HLA-A11.01 [11]): 10.0 h
- Measured stability (HLA-A03.01 [5]): 5.0 h
